The source of these data is ChEMBL document CHEMBL5550209, “Hit-to-Lead Optimization of Heterocyclic Carbonyloxycarboximidamides as Selective Antagonists at Human Adenosine A3 Receptor” (J Med Chem, 2024).

Each structure is given as a SMILES string.

A short description of this data set: Plasma protein binding in human at 10 uM measured upto 24 hrs by equilibrium dialysis method. On the technique in general: Equilibrium dialysis compares concentrations on both sides of a semipermeable membrane.

On to `CN[C@H]1CC[C@@H](c2ccc(Cl)c(Cl)c2)c2ccccc21` [SERTRALINE], for which the fraction unbound (in general, the share of the substance not bound to proteins or other matrix) at 24 h, 10 µM came to 0.01.
